Laboratory results taken from US9951089B2, “Methods of treating a fatty acid amide hydrolase-mediated condition” (INFINITY PHARMACEUTICALS, INC., priority 2010, dated 2018).

Target: T1, human FAAH (Homo sapiens, UniProt O00519)
T1 construct: The clone was in an ORIGENE® pCMV6-XL5 with an insert size of ˜2.2 kb
T1 sequence (O00519 50-579 limits assumed): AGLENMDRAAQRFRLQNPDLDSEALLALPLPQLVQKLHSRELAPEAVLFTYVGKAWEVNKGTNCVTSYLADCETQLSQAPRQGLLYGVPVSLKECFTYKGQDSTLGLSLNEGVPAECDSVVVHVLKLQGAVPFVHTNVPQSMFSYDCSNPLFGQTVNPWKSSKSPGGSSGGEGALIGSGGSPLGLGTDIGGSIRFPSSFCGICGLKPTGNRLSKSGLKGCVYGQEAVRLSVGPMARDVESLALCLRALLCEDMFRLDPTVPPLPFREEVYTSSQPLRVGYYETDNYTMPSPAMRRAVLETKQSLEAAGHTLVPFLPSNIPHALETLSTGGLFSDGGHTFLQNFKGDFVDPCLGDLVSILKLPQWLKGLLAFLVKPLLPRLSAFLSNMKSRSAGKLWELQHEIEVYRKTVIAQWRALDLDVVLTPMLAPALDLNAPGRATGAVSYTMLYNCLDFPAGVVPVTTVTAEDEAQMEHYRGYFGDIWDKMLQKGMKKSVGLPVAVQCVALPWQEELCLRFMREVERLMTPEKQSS
Assay: Ki determination, human FAAH (AMC-arachidonoyl amide hydrolysis, fluorescence end point)
Format: biochemical
Conditions: hFAAH 108 μg/mL, substrate 20 μM, 30 min preincubation, 4 hours at room temperature
Source text: A human FAAH (hFAAH) cDNA clone was purchased from Origen (Catalog #TC 119221, Accession #NM_001441.1). The clone was in an ORIGENE® pCMV6-XL5 with an insert size of ˜2.2 kb. Sequencing of the clone indicated a conservative mutation of K48R. This point mutation is possibly an allelic difference, and is far from the active site and unlikely to effect the activity. This plasmid was amplified in E. coli and isolated by precipitation. […]
Frozen cell pellets were thawed on ice and resuspended in: 12.5 mM HEPES (pH 8.0), 100 mM NaCl, and 1 mM EDTA at a ratio of 25 mL per gram of cells. […] Total protein concentrations were determined using a Bio-Rad Protein Assay (Protein Assay Dye Reagent Concentrate, cat#500-0006) ref. 5. […]
The Ki of a test compound was determined for rat and human FAAH by measuring the dose dependent inhibition of AMC-Arachidonoyl amide hydrolysis as an end point read. Assays were carried out in Corning COSTAR® 384 well flat black bottom microtiter plates (Catalog #3654) and monitored in an Envision 2100 multilabel plate reader (Perkin Elmer-Wallac), with a 355 nm (40 nm band pass) excitation filter and 460 nm (25 nm bandpass) emission filter. […]

A Ki of 14.1 nM was found for `OB(O)c1ccc(-c2ccc(B(O)O)c(F)c2)cc1F` [IMP-4] in this work.
